Laboratory results taken from patent publication US20240051940A1, “SULFONAMIDES WITH EGFR INHIBITION ACTIVITIES AND THEIR USE THEREOF” (ACCUTAR BIOTECHNOLOGY INC., priority 2021, published 2024).

Experiments:
Format in all cases: cell-based
HCC827 = test: Cell growth inhibition (CellTiter-Glo), HCC827; details: Homo sapiens, 72 h, HCC827 cells, 3 days after administration
Experimental: (§1) 2. Cell Growth Inhibition for HCC827, HCC827-LTC, HCC827-DTC and NCI-H2073.
(§2) HCC827(ATCC), HCC827-LTC, HCC827-DTC and NCI-H2073 (ATCC) were seeded in 96-well plates at 5000 cells/well in 90 μL of RPMI growth medium containing 10% FBS and 1% Penicillin Streptomycin. Cells were incubated at 37° C. overnight. The following day, the test compound was administered to the cells by using 10× compound stock solution prepared in growth medium at various concentrations. After administration of the compound, cells were then incubated at 37° C. for 3 days. Before CellTiter-Glo assay, the plates were equilibrated at room temperature for approximately 10 minutes. 100 ul of CellTiter-Glo® Reagent (Promega) was added to each well. The plates were then incubated at room temperature for 10 minutes and luminescence was recorded by EnSpire plate reader (PerkinElmer).

[1] = test system: HCC827-LTC (HCC827 cells stably expressing human EGFR L858R/T790M/C797S, endogenous EGFR knocked out); test: Cell growth inhibition (CellTiter-Glo), HCC827-LTC; details: 72 h, 3 days after administration
Experimental: (§3) 1. Preparation of HCC827-LTC and HCC827-DTC Cell Lines
(§4) HCC827 cells (ATCC) were transduced with lentiviral particles expressing codon-optimized human EGFR L858R/T790M/C797S (LTC) mutant or del19/T790M/C797S (DTC) mutant, and then selecting under 5 ug/ml purimycin treatment for a week to generate HCC827 cells stably expressing EGFR LTC or DTC mutants. Next, endogenous EGFR gene in purimycin-selected HCC827 LTC or DTC cells was knocked out using CRISPR-Cas9 technology to ensure the growth of engineered HCC827 cells was solely dependent on exogenous EGFR LTC or DTC mutants. For the EGFR knockout, gRNA complex was prepared by combining Alt-R CRISPR-Cas9 tracrRNA and EGFR crRNA (5′-[…]-3′ for LTC) or (5′-[…]-3′ for DTC) (IDT-Integrated DNA Technologies), and then EGFR ribonucleoprotein (RNP) complex was prepared by combining gRNA complex and Alt-R S.p. Cas9 Nuclease V3 (IDT-Integrated DNA Technologies). Purimycin-selected HCC827 LTC or DTC cells were then electroporated with EGFR RNP complexes using Neon Transfection System (Thermo Fisher). Single clones of HCC827-LTC or HCC827-DTC with endogenous EGFR knockout were picked one week after electroporation and their EGFR knockout was validated by genomic DNA sequencing. HCC827-LTC or HCC827-DTC single clones were also further validated with loss of inhibitory activity by covalent EGFR inhibitors.
as §1, §2

[2] = test system: HCC827-DTC (HCC827 cells stably expressing human EGFR del19/T790M/C797S, endogenous EGFR knocked out); test: Cell growth inhibition (CellTiter-Glo), HCC827-DTC; details: 72 h, 3 days after administration
Experimental: as §3, §4, §1, §2

NCI-H2073 = test: Cell growth inhibition (CellTiter-Glo), NCI-H2073; details: 72 h, NCI-H2073 cells, 3 days after administration
Experimental: as §1, §2

Structure (SMILES): COc1cc(N2CCC(N3CCN(C)CC3)CC2)c(C)cc1Nc1ncc(Br)c(Nc2ccc3nccnc3c2NS(C)(=O)=O)n1 [Compound 1, N-(6-((5-bromo-2-((2-methoxy-5-methyl-4-(4-(4-methylpiperazin-1-yl)piperidin-1-yl)phenyl)amino)pyrimidin-4-yl)amino)quinoxalin-5-yl)methanesulfonamide]
- GI50 (HCC827): 0.03 to 0.1 µM
- GI50 [1]: 0.1 to 0.3 µM
- GI50 [2]: 0.1 to 0.3 µM
- GI50 (NCI-H2073): 0.1 to 0.3 µM

Structure (SMILES): CCc1cc(Nc2ncc(Br)c(Nc3ccc4nccnc4c3NS(C)(=O)=O)n2)c(OC)cc1N1CCC(N2CCN(C)CC2)CC1 [Compound 2, N-(6-((5-bromo-2-((5-ethyl-2-methoxy-4-(4-(4-methylpiperazin-1-yl)piperidin-1-yl)phenyl)amino)pyrimidin-4-yl)amino)quinoxalin-5-yl)methanesulfonamide]
- GI50 (HCC827): < 0.03 µM
- GI50 [1]: 0.03 to 0.1 µM
- GI50 [2]: 0.03 to 0.1 µM
- GI50 (NCI-H2073): 0.1 to 0.3 µM

Structure (SMILES): COc1cc(N2CCC(N3CCN(C)CC3)CC2)c(C)cc1Nc1ncnc(Nc2ccccc2NS(C)(=O)=O)n1 [Compound 3, N-(2-((4-((2-methoxy-5-methyl-4-(4-(4-methylpiperazin-1-yl)piperidin-1-yl)phenyl)amino)-1,3,5-triazin-2-yl)amino)phenyl)methanesulfon-amide]
- GI50 (HCC827): 0.03 to 0.1 µM
- GI50 [1]: 0.1 to 0.3 µM
- GI50 [2]: 0.1 to 0.3 µM
- GI50 (NCI-H2073): 0.1 to 0.3 µM

Structure (SMILES): COc1cc(N2CCC(N3CCN(C)CC3)CC2)c(C)cc1Nc1ncc(Cl)c(Nc2ccc3nccnc3c2NS(C)(=O)=O)n1 [Compound 4, N-(6-((5-chloro-2-((2-methoxy-5-methyl-4-(4-(4-methylpiperazin-1-yl)piperidin-1-yl)phenyl)amino)pyrimidin-4-yl)amino)quinoxalin-5-yl)methanesulfonamide]
- GI50 (HCC827): < 0.03 µM
- GI50 [1]: 0.1 to 0.3 µM
- GI50 [2]: 0.03 to 0.1 µM
- GI50 (NCI-H2073): 0.03 to 0.1 µM
